Measured values reported in a melting point compilation (Tetko et al.).

| SMILES | melting point [°C] |
| --- | --- |
| OCC1CSCCN1 (centres undefined) | 84 to 86 |
| CSc1ccc(-c2csc(N)n2)cc1 | 219 to 221 |
| Nc1cccc(C(=O)Nc2cccc(F)c2)c1 | 123 to 125 |
| Nc1cc([N+](=O)[O-])ccc1Nc1ccc(F)cc1 | 162 to 164 |
| CN1N=C(c2ccncc2)CC1=O | 209 to 211 |
| Nc1ccc(N2CCNCC2)cn1 | 162 to 164 |
| Cc1nccn1-c1ccc(C#N)cn1 | 213 to 215 |
| CC(C)(Cc1ccccc1)NC(=O)OC(C)(C)C | 51 to 53 |
| Nc1nc(N2CCOCC2)ns1 | 187 to 189 |
| N#Cc1ccc2[nH]cc(C=O)c2c1 | 239 to 241 |
| NC(=S)Nc1ccc2c(c1)CCC2 | 179 to 181 |
| Nc1nc2c(F)c(F)c(F)cc2s1 | 160 to 164 |
| Cc1nc(=N)c(C)c(C)[nH]1 | 196 to 198 |
| Cc1n[nH]c2ncc([N+](=O)[O-])cc12 | 189 to 191 |
| Nn1c(S)nnc1SCc1ccccc1 | 157 to 159 |
| CC1(c2ccc(C(F)(F)F)cc2)NC(=O)NC1=O (centres undefined) | 169 to 171 |
| Cc1nc2scc(-c3ccccc3)c2c(=O)n1N | 134 to 136 |
| N#CCCn1cnc2ccccc2c1=O | 142 to 144 |
| Cc1nc(O)nc(C)c1Br | 210 to 212 |
| Nc1nccnc1CO | 115 to 117 |
| Cc1cnc(Br)nc1Br | 58 to 60 |
| CCOC(C)c1nc(CC(=O)O)cs1 (centres undefined) | 91 to 93 |
| CC(C)(C)C(=O)N1CCCC1C(=O)O (centres undefined) | 136 to 138 |
| Cc1sc2nc(CN3CCCCC3)nc(Cl)c2c1C | 61 to 63 |
| CCOC(=O)Cc1nc2cc(C)c(C)cc2[nH]1 | 169 to 171 |

| SMILES | melting point [°C] |
| --- | --- |
| CCc1nnc(NC(=O)CCl)s1 | 101 to 103 |
| Nc1ccc2c(c1)NC(=O)CO2 | 215 to 217 |
| Cc1ccnc(Br)c1N | 76 to 78 |
| COc1ccc(-c2ccc(C#N)c(=O)[nH]2)cc1OC | 272 to 274 |
| COCCNC(N)=S | 118 to 120 |
| CN1C(=O)CCC(C(N)=O)C1c1cnn(C)c1 (centres undefined) | 185 to 187 |
| Cc1[nH]c(=O)[nH]c1C | 239 to 241 |
| Cc1c(C(=O)O)sc2nnc(S)n12 | 275 to 277 |
| CSc1snc(O)c1C#N | 230 to 232 |
| NNC(=O)CC1CCCC1 | 82 to 84 |
| Cc1cc(C=O)c(C)n1CCN1CCOCC1 | 79 to 81 |
| C1=CCC(c2nc3ccccc3[nH]2)CC1 (centres undefined) | 209 to 211 |
| Clc1nc(CN2CCOCC2)nc2scc(-c3ccccc3)c12 | 82 to 84 |
| Nc1nc(SCCO)n[nH]1 | 126 to 128 |
| COC(=O)NS(=O)(=O)Cl | 69 to 71 |
| Cc1ccc(CNC(=O)c2nnc(CCl)s2)cc1 | 153 to 155 |
| Nc1nc(-c2ccccc2)c(-c2ccccc2)s1 | 181 to 183 |
| [N-]=[N+]=Nc1cccc2ncccc12 | 61 to 63 |
| CCc1nc(N)nc(SC)n1 | 143 to 145 |
| NCCCN1CCC(C(N)=O)CC1 | 94 to 96 |
| O=C1CCC2(CC1)NC(=O)NC2=O | 199 to 201 |
| O=c1[nH]c(S)nc2ccsc12 | 364 to 366 |
| CCNC(=O)NC1CCC(O)CC1 (centres undefined) | 36 to 39 |
| Nc1ccc(C(=O)N2CCc3ccccc32)cc1 | 185 to 187 |
| CC(C)(C)OC(=O)N1CCN(C(=O)C2CCCN2)CC1 (centres undefined) | 219 to 221 |

| SMILES | melting point [°C] |
| --- | --- |
| COc1cc(C=O)cc(Br)c1OCC(=O)N(C)C | 62 to 64 |
| Nc1ccc(Oc2ccc(Cl)cc2)nc1 | 89 to 91 |
| CCc1ccc(-c2ccc(C=O)o2)cc1 | 45 to 47 |
| COC(=O)C(N)c1cc(C)c(O)c(C)c1 (centres undefined) | 147 to 149 |
| Nc1ccc(-n2cnc3ccccc32)cc1 | 104 to 106 |
| Cc1nc2sc(C(=O)O)c(C)c2c(=O)[nH]1 | 388 to 390 |
| O=[N+]([O-])c1ccc(-c2cn3ccsc3n2)cc1 | 284 to 286 |
| Nc1ccc(CNC(=O)c2ccc(Br)cc2)cc1 | 173 to 175 |
| COc1cc(OC)cc(N2CCC(N)C2=O)c1 (centres undefined) | 88 to 90 |
| COc1ccccc1CNC(=O)n1ccnc1 | 128 to 130 |
| Nc1scnc1-c1ccccc1 | 130 to 132 |
| Cc1ccc(C(=O)Nc2cccc(C(F)(F)F)c2)cc1O | 169 to 171 |
| COc1ccccc1NC(=O)NC1CCNCC1 | 83 to 85 |
| Cc1csc(NC(C)C(=O)O)n1 (centres undefined) | 189 to 191 |
| O=C(Nc1ccccc1F)Nc1cccc2c1CCNC2 | 157 to 159 |
| CCOC(=O)Cc1ccc(F)cc1 | 29 to 31 |
| C#CCn1ccc2ccccc21 | 43 to 45 |
| COc1ccc(Nc2ncccc2N)cc1 | 164 to 166 |
| NNC(=O)C1COc2ccccc2O1 (centres undefined) | 111 to 113 |
| CCc1c(C(=O)O)cnn1Cc1ccccc1 | 124 to 126 |
| COc1cc(-c2nnc(S)o2)cc(OC)c1OC | 97 to 99 |
| O=Cc1cn(-c2ccccc2)cn1 | 125 to 127 |
| CC(C)(C)Oc1ncccc1O | 86 to 88 |
| Cc1csc(NCC(=O)O)n1 | 224 to 226 |
| NC(=O)CCCO | 42 to 44 |

Continued, values first:

| melting point [°C] | SMILES |
| --- | --- |
| 119 to 121 | COc1ccc(C(=O)N(C)C)cc1N |
| 269 to 271 | COc1ccc2c(O)c(C(=O)O)cnc2c1 |
| 160 to 163 | Cc1ccc(-c2nn(-c3ccccc3)cc2C(=O)O)o1 |
| 52 to 54 | COc1ccc(C(=O)CC(C)=O)cc1 |
| 199 to 201 | Cc1cc(C(=O)O)nn1-c1ccc(Cl)cc1Cl |
| 142 to 144 | C=CC(=O)Nc1cc(Cl)c(OC)cc1OC |
| 192 to 194 | O=C1C=C(O)C(=O)c2ccccc21 |
| 184 to 186 | CCN(CC)c1ccc([N+](=O)[O-])cc1C(=O)O |
| 213 to 215 | O=C1NC(=O)N(c2ccccc2)C1=O |
| 137 to 139 | COc1ccc(Br)cc1C(=O)C(=O)O |
| 95 to 97 | O=C(CCl)NCc1ccc(F)cc1C(F)(F)F |
| 108 to 110 | COc1ccc2cc(C(=O)CBr)ccc2c1 |
| 133 to 135 | O=C(O)c1ccc(S(=O)(=O)Cl)cc1Cl |
| 120 to 122 | CC(=O)c1ccc(-c2ccc(Cl)cc2)s1 |
| 143 to 145 | Cc1ccc(-c2noc(CCC(=O)O)n2)cc1 |
| 190 to 192 | NS(=O)(=O)c1ccc(-n2cccn2)c(F)c1 |
| 313 to 315 | O=Cc1ccc(-c2ccc(C(=O)O)cc2)o1 |
| 205 to 207 | Cn1c(SCC(=O)O)nnc1-c1cccs1 |
| 132 to 134 | O=Cc1ccc(Cl)c2cccnc12 |
| 126 to 128 | Cc1ccccc1C(=O)NC1CCN(C(=O)CCl)CC1 |
| 96 to 98 | Cc1cc(C(=O)CCl)c(C)n1-c1cccc(C(F)(F)F)c1 |
| 59 to 61 | CC(C)(C)c1ccccc1S(=O)(=O)Cl |
| 224 to 226 | O=C(O)c1n[nH]c(=O)[nH]c1=O |

| melting point [°C] | SMILES |
| --- | --- |
| 92 to 94 | COc1ccc(S(=O)(=O)Cl)c(Cl)c1Cl |
| 163 to 165 | Cc1nc(CNC(=O)OC(C)(C)C)ccc1C(=O)O |
| 93 to 97 | Nc1cc(Cl)ccc1-n1cncn1 |
| 66 to 68 | O=C(NCc1ccccc1)c1cc(Cl)ccn1 |
| 133 to 137 | Cc1noc(C)c1S(=O)(=O)N1CCCC1C(=O)O (centres undefined) |
| 68 to 70 | Cc1cc(C)c(C(=O)CCl)c(C)c1 |
| 173 to 175 | CC1CC1C(=O)Nc1ccc(F)cc1C(=O)O (centres undefined) |
| 197 to 199 | Cc1ccc(S(=O)(=O)N2CCCCC2)cc1C(=O)O |
| 126 to 128 | Cc1ccc(C2OCCCC2C(=O)O)cc1 (centres undefined) |
| 158 to 160 | Cc1nnc(-c2cccc([N+](=O)[O-])c2)o1 |
| 137 to 139 | COc1cc(C)c(Br)cc1S(=O)(=O)Cl |
| 150 to 152 | CCOc1ccc(NC(=O)CO)cc1 |
| 179 to 181 | COc1cc(C=O)c([N+](=O)[O-])cc1OCC(=O)O |
| 246 to 248 | O=C(O)c1cn(-c2ccccc2)nc1-c1ccc(Cl)cc1 |
| 59 to 61 | CSc1ccccc1NC(=O)C(C)Cl (centres undefined) |
| 119 to 121 | COc1ccc2nc(C)nc(Cl)c2c1 |
| 89 to 91 | O=C(O)CC1CCOc2ccccc21 (centres undefined) |
| 173 to 175 | COc1ccc(C(=O)NNC(=O)CCl)cc1OC |
| 107 to 109 | CS(=O)(=O)N1CCCC(C(=O)O)C1 (centres undefined) |
| 203 to 205 | Nc1ccc(C(=O)O)cc1CCCC(=O)O |
| 210 to 212 | Sc1nnc(Nc2cccc(Cl)c2)s1 |
| 271 to 273 | NC(=O)c1ccc(NCC(=O)O)cc1 |
| 208 to 210 | CC(NC(=O)c1[nH]nc2ccccc12)C(=O)O (centres undefined) |

| melting point [°C] | SMILES |
| --- | --- |
| 229 to 231 | Cc1ccnc(O)c1C(=O)O |
| 143 to 147 | Cc1ccc(NC(=O)C(Cl)c2ccccc2)cc1 (centres undefined) |
| 194 to 196 | CN(C)C(=O)CN1C(=O)C(=O)c2cc(Br)ccc21 |
| 169 to 175 | Cc1cccc2cc(C(=O)O)[nH]c12 |
| 175 to 177 | O=C(CCl)NCc1cccc(NC(=O)C2CC2)c1 |
| 139 to 141 | NC(=O)CCc1ccc(C(=O)CCl)cc1 |
| 256 to 258 | Cc1ccn2ncc(C(=O)O)c2n1 |
| 67 to 69 | CC(C)CC(NS(C)(=O)=O)C(=O)O (centres undefined) |
| 44 to 46 | COc1ccc2c(c1)C(=O)CCO2 |
| 106 to 108 | O=C(O)C1(c2ccccc2F)CCCC1 |
| 230 to 232 | COC(=O)c1ccc2[nH]cc(C=O)c2c1 |
| 98 to 102 | CSc1ccc(C(=O)CCl)cc1NC(C)=O |
| 119 to 121 | O=C1CCC(O)(c2cccc(Cl)c2)CC1 |
| 161 to 163 | Nc1ccc(NS(=O)(=O)c2c(Cl)cccc2Cl)cc1 |
| 99 to 101 | O=C(O)C(F)(F)c1ccc(F)cc1 |
| 209 to 211 | O=C(O)CCc1nc2cccc(Cl)c2[nH]1 |
| 140 to 142 | CCOc1c(Br)cc(C(=O)O)cc1OC |
| 194 to 196 | COc1cccc(CSCC(N)C(=O)O)c1 (centres undefined) |
| 129 to 131 | C#Cc1ccc(C(=O)O)cn1 |
| 48 to 50 | CCOC(=O)c1ccc(S(=O)(=O)Cl)c(Br)c1 |
| 69 to 71 | CC(C)Oc1ccc([N+](=O)[O-])cc1CBr |
| 107 to 109 | Cc1ccc([N+](=O)[O-])cc1S(=O)(=O)N1CCC(C(=O)O)CC1 |
| 70 to 72 | CC(=O)c1ccc(O)c(CN2CCOCC2)c1 |
